Reference: ChEMBL document CHEMBL1800026 (Bioorg Med Chem, 2010)
Active and inactive are the calls of the source. The calls are words filed in the database; no cut-off is given here.

How the values were obtained:
[1] = target: Beta-1 adrenergic receptor (Rattus norvegicus, UniProt P18090); test: Displacement of [3H]CGP-12177 from beta1-adrenergic receptor in Sprague-Dawley rat cortical membrane after 2 hrs
[2] = target: T1, Beta-2 adrenergic receptor (Homo sapiens, UniProt P07550); test: Displacement of [3H]CGP-12177 from human beta2-adrenergic receptor expressed in HEK 293 cells; type: cell-based, HEK293
T1 sequence (P07550 whole entry): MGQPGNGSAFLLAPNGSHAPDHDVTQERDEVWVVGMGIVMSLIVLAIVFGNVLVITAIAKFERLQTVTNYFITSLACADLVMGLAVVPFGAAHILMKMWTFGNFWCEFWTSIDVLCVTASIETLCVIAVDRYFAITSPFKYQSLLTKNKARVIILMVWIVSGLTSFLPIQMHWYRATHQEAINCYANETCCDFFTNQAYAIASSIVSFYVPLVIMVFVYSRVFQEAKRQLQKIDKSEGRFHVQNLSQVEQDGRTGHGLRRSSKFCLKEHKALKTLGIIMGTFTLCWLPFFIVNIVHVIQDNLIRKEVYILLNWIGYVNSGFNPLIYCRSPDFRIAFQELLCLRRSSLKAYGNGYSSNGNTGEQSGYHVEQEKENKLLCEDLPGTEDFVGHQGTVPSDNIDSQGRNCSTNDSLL

[3] = Selectivity ratio of Ki for beta1-adrenergic receptor in Sprague-Dawley rat cortical membrane to Ki for human beta2-adrenergic receptor
[4] = target: Beta-1 adrenergic receptor (Homo sapiens, UniProt P08588); test: Displacement of [125I]-CYP from human beta1-adrenergic receptor expressed in COS-7 cells by gamma counting; type: cell-based
Chain of Beta-1 adrenergic receptor (Homo sapiens, UniProt P08588) (P08588 whole entry): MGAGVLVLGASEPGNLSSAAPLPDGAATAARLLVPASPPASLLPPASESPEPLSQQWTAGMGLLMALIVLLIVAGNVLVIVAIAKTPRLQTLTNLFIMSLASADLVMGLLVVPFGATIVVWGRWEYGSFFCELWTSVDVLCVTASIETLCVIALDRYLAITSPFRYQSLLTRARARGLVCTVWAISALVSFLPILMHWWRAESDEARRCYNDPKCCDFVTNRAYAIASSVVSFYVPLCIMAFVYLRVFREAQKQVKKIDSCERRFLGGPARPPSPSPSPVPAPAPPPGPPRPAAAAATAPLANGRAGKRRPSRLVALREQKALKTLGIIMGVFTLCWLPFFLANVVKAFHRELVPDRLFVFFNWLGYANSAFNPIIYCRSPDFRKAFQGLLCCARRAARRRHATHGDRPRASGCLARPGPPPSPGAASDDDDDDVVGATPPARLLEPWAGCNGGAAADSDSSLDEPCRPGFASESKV

Homo sapiens = species on record: Homo sapiens; test: Selectivity ratio of Ki for human beta1-adrenergic receptor to Ki human beta2-adrenergic receptor
[5] = target: T1, Beta-2 adrenergic receptor; test: Displacement of [125I]-CYP from human beta2-adrenergic receptor expressed in COS-7 cells by gamma counting; type: cell-based
[6] = target: Beta-2 adrenergic receptor (Rattus norvegicus) (UniProt P10608); test: Agonist activity beta2-adrenergic receptor in rat ventricular myocytes assessed as cell contraction following electrical stimulation by optical edge tracking method using photodiode array in presence of receptor antagonist ICI 118551; type: functional, cell-based
Chain of Beta-2 adrenergic receptor (Rattus norvegicus) (P10608 whole entry, looked up): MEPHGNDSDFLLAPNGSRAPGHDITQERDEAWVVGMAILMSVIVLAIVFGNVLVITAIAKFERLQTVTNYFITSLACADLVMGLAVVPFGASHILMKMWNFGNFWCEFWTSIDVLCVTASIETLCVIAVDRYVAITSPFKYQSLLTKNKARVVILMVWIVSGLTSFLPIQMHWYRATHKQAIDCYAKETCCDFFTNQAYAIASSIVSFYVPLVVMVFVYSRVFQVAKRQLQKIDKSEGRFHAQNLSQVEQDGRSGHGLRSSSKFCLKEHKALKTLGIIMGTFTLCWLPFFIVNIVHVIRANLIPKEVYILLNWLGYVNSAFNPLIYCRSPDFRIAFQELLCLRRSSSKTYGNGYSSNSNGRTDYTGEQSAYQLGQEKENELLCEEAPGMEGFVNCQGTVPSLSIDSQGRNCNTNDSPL

[7] = target: Beta-2 adrenergic receptor (Rattus norvegicus) (UniProt P10608); test: Agonist activity beta2-adrenergic receptor in rat ventricular myocytes assessed as cell contraction following electrical stimulation by optical edge tracking method using photodiode array in presence of receptor agonist zinterol; type: functional, cell-based

Chain of Beta-1 adrenergic receptor (Rattus norvegicus, UniProt P18090) (P18090 whole entry): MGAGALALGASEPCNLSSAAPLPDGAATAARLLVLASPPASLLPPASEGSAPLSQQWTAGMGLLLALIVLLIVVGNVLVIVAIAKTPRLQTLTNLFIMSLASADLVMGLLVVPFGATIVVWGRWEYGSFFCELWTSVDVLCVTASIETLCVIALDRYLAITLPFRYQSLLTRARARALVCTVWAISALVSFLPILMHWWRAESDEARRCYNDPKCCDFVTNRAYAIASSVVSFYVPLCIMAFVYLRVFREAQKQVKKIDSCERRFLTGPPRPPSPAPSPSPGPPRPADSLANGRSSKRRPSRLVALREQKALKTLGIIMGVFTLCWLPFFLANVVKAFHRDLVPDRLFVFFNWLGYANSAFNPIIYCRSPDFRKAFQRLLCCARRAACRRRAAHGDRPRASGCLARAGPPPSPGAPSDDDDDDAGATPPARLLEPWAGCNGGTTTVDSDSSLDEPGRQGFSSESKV

CC[C@@H](Cc1ccc(O)cc1)NC[C@H](O)c1cc(O)cc(O)c1 (racemic)
Ki [1]: 117 µM | Ki [2]: 5.76 µM | Ratio Ki [3]: 20

OCc1cc(C(O)CNCCCCCCCCCCCc2ccccc2)ccc1O (stereo not given)
Ki [4]: 2.3 µM | Ratio Ki (Homo sapiens): 10 | Ki [5]: 0.22 µM

C[C@@H](Cc1ccc2ccccc2c1)NC[C@H](O)c1cc(O)cc(O)c1
Ki [1]: 27.1 µM

COc1ccc(C[C@@H](C)NC[C@H](O)c2cc(O)cc(O)c2)c2ccccc12
Ki [1]: 161 µM

CC[C@H](Cc1ccc(O)cc1)NC[C@H](O)c1cc(O)cc(O)c1
Ki [1]: 424 µM | Ki [2]: 1.27 µM | Ratio Ki [3]: 334 | Activity [6]: inactive | Activity [7]: Active

C[C@H](Cc1ccc2ccccc2c1)NC[C@H](O)c1cc(O)cc(O)c1
Ki [1]: 16.6 µM

COc1ccc(C[C@H](C)NC[C@H](O)c2cc(O)cc(O)c2)c2ccccc12 (racemic)
Ki [1]: 14.8 µM
